Reference: US6534080B2, “Method for administering camptothecins via injection of pharmaceutical composition comprising coated particles of a camptothecin” (priority 2001, dated 2003)

Tests used:
[1] = system: A375 human melanoma xenografts; assay: A375 human melanoma xenograft study 1 (tumor growth delay, toxicity); settings: for share of mice with CR responses: q3d×4
From the text: The following study evaluates two intravenous formulations according to the present invention against human tumor xenografts in athymic nude mice. The study used the A375 human melanoma xenograft model to compare the in vivo antitumor efficacy of I.V. 9-nitro-camptothecin, in vehicles containing IDD-P which provides a particulate suspension of 9-nitro-camptothecin, and IDD-D which provides a droplet suspension of 9-nitro-camptothecin, to the efficacy of oral 9-nitro-camptothecin and intraperitoneal CAMPTOSAR®, HYCAMTIN®, and DTIC®.
In order to assess antitumor efficacy, groups of athymic nude mice (n=10) bearing ˜72-mg A375 melanomas were treated intravenously on the 5/2/5 schedule with 9-nitro-camptothecin in IDD-P at 3.0 mg/kg or 1.5 mg/kg and 9-nitro-camptothecin in IDD-D at 2.0 mg/kg or 1.0 mg/kg.
Husbandry: Female nude mice were 16 weeks of age (NCR-nufBr; Taconic Farms) for the A375 study. The mice were fed ad libitum water (reverse osmosis, 1 ppm Cl) and autoclaved Prolab NIH-31 M/5% Rodent Diet consisting of 18% protein, 5% fat, 6% fiber, and 8% ash. Mice were housed in static microisolators on a 12-hour light cycle at 21-22° C. (70-72° F.) and 40%-60% humidity.
Tumor Implantation: An A375 melanoma fragment (1 mm 3 ) was implanted subcutaneously in the flank of each nude mouse. When the tumors reached the 60-112 mg size range, the mice were sorted into treatment groups (on Day 1) such that the group mean tumor sizes ranged from 71.3 mg-72.5 mg. Estimated tumor weight was calculated using the formula: [formula]
Drug Formulations: IDD-P with a mean particle size of 0.07-0.06 mm and IDD-D with a mean particle size of 0.15 mm were prepared for the study by RTP Pharma Inc. For this, the 9-nitro-camptothecin suspensions were diluted with water and vehicle to provide doses of 3 mg/kg and 1.5 mg/kg in 33% IDD-P, and doses of 2 mg/kg and 1 mg/kg in 100% and 50% IDD-D, respectively. After dilution, 9-nitro-camptothecin suspensions were mixed thoroughly by gentle agitation and stored at 2-8° C. For its oral formulation, 9-nitro-camptothecin was dissolved in DMA (N,N-dimethylacetamide, SIGMA) and diluted with D5W to yield a final DMA concentration of 3%. CAMPTOSAR®, DTIC®, and HYCAMTIN® were obtained as the marketed drugs and solutions were prepared fresh on the day of dosing. CAMPTOSAR® (irinotecan, Pharmacia & Upjohn Company, 20 mg/ml) and DTIC® (dacarbazine, Bayer Corporation, 20 mg/ml) were diluted with D5W. HYCAMTIN® (topotecan, SmithKlein Beecham) was reconstituted with water at 1 mg/ml.
Treatments: Volumes of 0.20 ml per 20-g mouse, body-weight adjusted, were administered once daily. Tumor-bearing athymic nude mice were matched on Day 1 into 13 groups of ten animals and drug administration was initiated. The I.V. formulations of 9-nitro-camptothecin were given once daily on a 5/2/5 schedule as shown in the protocol summary shown in FIG. 4. Oral 9-nitro-camptothecin doses were given on a q3d×4 schedule (Days 1, 4, 8, and 11). Three reference drugs were administered I.P.: CAMPTOSAR® was given in three doses at weekly intervals (qwk×3); HYCAMTIN® was given in four doses at four-day intervals (q4d×4); and DTIC® was given in five consecutive daily doses (qd×5). The tumor growth control group for these reference treatments received no treatment (Group 1). The 9-nitro-camptothecin vehicle: 33.3% IDD-P, 100% IDD-D, and 3% DMA, was administered to vehicle control Groups 2-4, respectively.
Tumor Growth Endpoint: The tumor growth delay (TGD) method was used to assess efficacy. Tumor dimensions were measured twice weekly until the experiment was terminated on Day 62.

[2] = human plasma, pH 7.4, 37° C.; cited from earlier work
[3] = whole blood; cited from earlier work
[4] = biological target: human serum albumin (HSA) (Homo sapiens, UniProt P02768); settings: PBS at pH 7.4; cited from earlier work
[5] = 2.0 mg/kg p.o., q3d×4, Group 13, Day 62
[6] = 4.0 mg/kg p.o., q3d×4, Group 12, Day 62

human serum albumin (HSA), sequence (P02768 25-609): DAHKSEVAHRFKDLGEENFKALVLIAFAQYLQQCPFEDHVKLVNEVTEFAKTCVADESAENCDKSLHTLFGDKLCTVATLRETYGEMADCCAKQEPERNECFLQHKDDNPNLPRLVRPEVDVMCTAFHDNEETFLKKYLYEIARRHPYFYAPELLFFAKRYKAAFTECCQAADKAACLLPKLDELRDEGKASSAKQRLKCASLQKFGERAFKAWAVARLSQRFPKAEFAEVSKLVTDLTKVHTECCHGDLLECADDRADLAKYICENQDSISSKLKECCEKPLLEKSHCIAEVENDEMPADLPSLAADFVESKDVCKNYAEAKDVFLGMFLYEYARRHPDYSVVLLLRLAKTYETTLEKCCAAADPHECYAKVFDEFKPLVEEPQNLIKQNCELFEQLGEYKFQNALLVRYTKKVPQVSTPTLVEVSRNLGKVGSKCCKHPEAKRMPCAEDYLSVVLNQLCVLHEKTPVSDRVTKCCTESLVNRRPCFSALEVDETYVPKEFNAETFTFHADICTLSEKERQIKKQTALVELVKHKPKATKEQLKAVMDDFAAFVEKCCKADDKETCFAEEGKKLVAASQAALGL

In the case of CC[C@@]1(O)C(=O)OCc2c1cc1n(c2=O)Cc2cc3c([N+](=O)[O-])cccc3nc2-1 [9-nitro-camptothecin in 3% DMA, 9-nitro-20(S)-camptothecin], the “share of mice with CR responses” value ([1]; 2 mg/kg p.o.) is reported as 40%, the CR responses [1, 5] is reported as 4 and the “PR responses (printed RP)” value [1, 5] is reported as 1. For the same compound, the SD/PD responses [1, 5] was 2, the 62-day survivors ([1]; 2.0 mg/kg p.o., q3d×4, Group 13, n=10) was “seven” and the “share of mice with CR responses” value ([1]; 4 mg/kg p.o.) was 40%. The CR responses [1, 6] was 4, the SD/PD responses [1, 6] was 3 and the 62-day survivors ([1]; 4.0 mg/kg p.o., q3d×4, Group 12, n=10) was “seven”.
With CCc1c2c(nc3ccc(OC(=O)N4CCC(N5CCCCC5)CC4)cc13)-c1cc3c(c(=O)n1C2)COC(=O)[C@]3(O)CC [CAMPTOSAR®, irinotecan] the CR responses ([1]; 100 mg/kg I.P., qwk×3, Group 5, Day 62) was “single and one”.
For CN(C)/N=N/c1[nH]cnc1C(N)=O [DTIC®, dacarbazine], the toxic deaths ([1]; 150 mg/kg I.P., qd×5, Group 7, n=10) was “one and One”.
With CC[C@@]1(O)C(=O)OCc2c1cc1n(c2=O)Cc2cc3c(CN(C)C)c(O)ccc3nc2-1 [HYCAMTIN®, topotecan] the CR responses ([1]; 10 mg/kg I.P., q4d×4, Group 6, Day 62) was “single and one”.
For CC[C@@]1(O)C(=O)OCc2c1cc1n(c2=O)Cc2cc3ccccc3nc2-1 [camptothecin, 20(S)-camptothecin], the “half-life of α-hydroxy lactone ring opening” value [2] is given as 11 min and the “half-life of α-hydroxy lactone” value [3] is given as 22 min.
In the case of CC[C@@](O)(C(=O)O)c1cc2n(c(=O)c1CO)Cc1cc3ccccc3nc1-2 [carboxylate form of camptothecin], the “affinity for HSA of carboxylate form relative to α-hydroxy lactone form” value [4] is given as 150 fold.
